Measured values as given in US9957271B2, “Substituted bicyclic aza-heterocycles and analogues as sirtuin modulators” (GlaxoSmithKline, LLC, priority 2012, dated 2018).

What was measured:
SIRT1 [1] = biological target: T1, SIRT1 (Homo sapiens, UniProt Q96EB6); experiment: TAMRA based mass spectrometry assay of SIRT1 activity; assay type: biochemical; conditions: TAMRA assay; for TAMRA EC1.5 (μM): concentration giving 150% activation of SIRT1; for Emax: percent maximum fold activation, read-out: TAMRA % Fold Act
T1 sequence (Q96EB6 1-747): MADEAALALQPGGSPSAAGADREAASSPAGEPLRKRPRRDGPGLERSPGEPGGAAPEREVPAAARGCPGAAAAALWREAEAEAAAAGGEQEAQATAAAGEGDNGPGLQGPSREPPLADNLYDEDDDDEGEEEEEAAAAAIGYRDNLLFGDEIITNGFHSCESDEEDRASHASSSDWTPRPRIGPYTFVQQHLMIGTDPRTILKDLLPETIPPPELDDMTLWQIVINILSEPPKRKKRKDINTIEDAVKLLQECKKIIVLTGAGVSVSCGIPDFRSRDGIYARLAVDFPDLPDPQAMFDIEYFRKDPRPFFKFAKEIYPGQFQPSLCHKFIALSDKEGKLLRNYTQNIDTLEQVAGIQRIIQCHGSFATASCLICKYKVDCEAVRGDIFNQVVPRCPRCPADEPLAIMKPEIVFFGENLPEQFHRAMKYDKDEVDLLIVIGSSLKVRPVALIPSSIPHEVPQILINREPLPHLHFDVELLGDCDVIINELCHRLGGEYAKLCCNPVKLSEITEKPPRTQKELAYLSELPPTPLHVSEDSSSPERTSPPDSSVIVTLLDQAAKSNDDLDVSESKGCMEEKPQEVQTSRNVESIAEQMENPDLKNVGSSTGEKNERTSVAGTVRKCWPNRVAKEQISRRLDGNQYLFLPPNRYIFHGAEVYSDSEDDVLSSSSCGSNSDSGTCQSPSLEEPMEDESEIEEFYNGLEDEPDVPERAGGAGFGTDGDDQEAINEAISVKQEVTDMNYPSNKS
Summary of the method: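 Deacetylation of a biotinylated, TAMRA-tagged p53-based peptide (0.5 μM) by 10 nM His-tagged SIRT1 with 120 μM βNAD+, 25 °C for 25 min, pH 8 Tris-acetate buffer, across a compound concentration range. Quenched by formic acid and read by mass spec as product peptide or OAADPR; activity relative to DMSO reactions, nicotinamide defining maximal inhibition.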

SIRT1 [2] = biological target: T1, SIRT1; experiment: Trp mass spectrometry assay of SIRT1 activity; assay type: biochemical; conditions: Trp assay; for Trp EC1.5 (μM): concentration giving 150% activation of SIRT1; for Emax: percent maximum fold activation, read-out: Trp % Fold Act
Summary of the method: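 Activation readout: EC1.5 (concentration raising activity 50% over control) and percent maximum activation, from mass-spec quantitation of OAADPR or deacetylated Trp peptide. Reaction: 0.5 μM acetylated Trp peptide, 120 μM βNAD+, 10 nM bacterially expressed N-His SIRT1, pH 7.5 HEPES buffer with […], 25 min at 25° C.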

Structure (SMILES) | TAMRA EC1.5 (μM) (SIRT1 [1]) | Emax (SIRT1 [1]) [%] | Trp EC1.5 (μM) (SIRT1 [2]) | Emax (SIRT1 [2]) [%]
Cc1nc2ccc(-c3ccccc3OC[C@H](O)CO)nn2c1C(=O)Nc1ccccn1 [Compound 815, (R)-6-(2-(2,3-dihydroxypropoxy)phenyl)-2-methyl-N-(pyridin-2-yl)imidazo[1,2-b]pyridazine-3-carboxamide] | A (EC1.5<1 μM) | ≥ 350 | A (EC1.5<1 μM) | ≥ 350
Cc1cccc(NC(=O)c2c(C)nc3ccc(-c4ccccc4OC[C@H](O)CO)nn23)n1 [Compound 816] | A (EC1.5<1 μM) | ≥ 350 | A (EC1.5<1 μM) | ≥ 350
Cc1cc(NC(=O)c2c(C)nc3ccc(-c4ccccc4OC[C@H](O)CO)nn23)nc(C)n1 [Compound 818] | A (EC1.5<1 μM) | ≥ 350 | B (EC1.5 1-25 μM) | < 350
Cc1cnc(NC(=O)c2cnc3ccc(-c4ccccc4OC[C@H](O)CO)nn23)s1 [Compound 820] | B (EC1.5 1-25 μM) | ≥ 350 | B (EC1.5 1-25 μM) | < 350
Cc1nc2ccc(-c3cccc(OC[C@H](O)CO)c3)nn2c1C(=O)Nc1ccc(F)cn1 [Compound 821] | B (EC1.5 1-25 μM) | < 350 | A (EC1.5<1 μM) | < 350
Cc1cnc(NC(=O)c2c(C)nc3ccc(-c4cccc(OC[C@H](O)CO)c4)nn23)s1 [Compound 823] | A (EC1.5<1 μM) | < 350 | A (EC1.5<1 μM) | < 350
Cc1ncccc1NC(=O)c1c(C)nn2ccc(-c3ccccc3Br)nc12 [Compound 824] | B (EC1.5 1-25 μM) | ≥ 350 | A (EC1.5<1 μM) | ≥ 350

Second part, the compound after the results:

TAMRA EC1.5 (μM) (SIRT1 [1]) | Emax (SIRT1 [1]) [%] | Trp EC1.5 (μM) (SIRT1 [2]) | Emax (SIRT1 [2]) [%] | Structure (SMILES)
B (EC1.5 1-25 μM) | ≥ 350 | A (EC1.5<1 μM) | < 350 | Cc1cc(C)c(NC(=O)c2c(C)nn3ccc(-c4ccccc4Br)nc23)cn1 [Compound 826]
A (EC1.5<1 μM) | ≥ 350 | A (EC1.5<1 μM) | < 350 | Cc1cncc(NC(=O)c2c(C)nn3ccc(-c4ccccc4Br)nc23)c1 [Compound 827]
A (EC1.5<1 μM) | ≥ 350 | C (EC1.5>25 μM) | < 350 | O=C(Nc1cnn2ccc(-c3ccccc3C(F)(F)F)nc12)c1cnc(O)cn1 [Compound 828]
A (EC1.5<1 μM) | ≥ 350 | A (EC1.5<1 μM) | < 350 | Cc1cnc(NC(=O)c2c(C)nc3ccc(-c4ccccc4OC[C@H](O)CO)nn23)s1 [Compound 829]
A (EC1.5<1 μM) | ≥ 350 | C (EC1.5>25 μM) | < 350 | O=C(Nc1cnn2ccc(-c3ccccc3C(F)(F)F)nc12)c1cc(O)ncn1 [Compound 830]
B (EC1.5 1-25 μM) | ≥ 350 | B (EC1.5 1-25 μM) | < 350 | O=C(Nc1ccncc1F)c1cnc2ccc(-c3ccccc3OC[C@H](O)CO)nn12 [Compound 831]
A (EC1.5<1 μM) | ≥ 350 | B (EC1.5 1-25 μM) | < 350 | Cc1cc(NC(=O)c2cnc3ccc(-c4ccccc4OC[C@H](O)CO)nn23)nc(C)n1 [Compound 832]
B (EC1.5 1-25 μM) | ≥ 350 | B (EC1.5 1-25 μM) | < 350 | O=C(Nc1ccncn1)c1cnc2ccc(-c3ccccc3OC[C@H](O)CO)nn12 [Compound 833]
